Source: patent publication US8791140B2, “Crystalline forms of 6-[2-(methylcarbamoyl)phenylsulfanyl]-3-E-[2-(pyridin-2-yl)ethenyondazole suitable for the treatment of abnormal cell growth in mammals” (Pfizer Inc., priority 2007, dated 2014)

conditions: solid, 1X ICH Option 1 light exposure, Atlas Suntest XLS+ light box, 320 nm cutoff filter
Protocol: A photochemical comparative study of Form XLI, Form XXV, and Form IV was performed.
Approximately 50 mg of each form was placed in 20 ml glass vials. The sample depth was <3 mm. The vials were covered with a quartz glass dish and placed in an Atlas Suntest XLS+ light box equipped with a 320 nm cutoff filter. […] The samples were exposed to artificial light equivalent to the International Conference on Harmonization (ICH) Guidelines for Photostability Testing of New Drug Substances, Option 1 exposure.

Row | SMILES | Potency (wt/wt %) after light exposure [%]
1 | CNC(=O)c1ccccc1Sc1ccc2c(/C=C/c3ccccn3)n[nH]c2c1 [Form IV, 6-[2-(methylcarbamoyl)phenylsulfanyl]-3-E-[2-(pyridin-2-yl)ethenyl]indazole] | 34
2 | CNC(=O)c1ccccc1Sc1ccc2c(/C=C/c3ccccn3)n[nH]c2c1 [Form XLI, 6-[2-(methylcarbamoyl)phenylsulfanyl]-3-E-[2-(pyridin-2-yl)ethenyl]indazole] | 89
3 | CNC(=O)c1ccccc1Sc1ccc2c(/C=C/c3ccccn3)n[nH]c2c1 [Form XXV, 6-[2-(methylcarbamoyl)phenylsulfanyl]-3-E-[2-(pyridin-2-yl)ethenyl]indazole] | 100
